Laboratory results reported in ChEMBL document CHEMBL4321785, “Challenges and Opportunities for Therapeutics Targeting the Voltage-Gated Sodium Channel Isoform NaV1.7” (J Med Chem, 2019).
pKd: −log10 of the molar value.

Assays:
[1] = target: Sodium channel protein type 4 subunit alpha (Homo sapiens, UniProt P35499); test: Binding affinity to human recombinant Nav1.4 by radioligand binding assay
[2] = target: Sodium channel protein type 5 subunit alpha (Homo sapiens, UniProt Q14524); test: Binding affinity to human recombinant Nav1.5 by radioligand binding assay
[3] = Unbound fraction in mouse plasma; type: ADME, cell-free
[4] = Ratio of unbound plasma concentration in mouse model of inherited erythromelalgia to Kd for binding affinity to recombinant human Nav1.7 by radioligand binding assay; type: ADME; settings: in vivo
[5] = Ratio of unbound plasma concentration in mouse model of formalin-induced pain to Kd for binding affinity to mouse Nav1.7 by radioligand binding assay; type: ADME; settings: in vivo
[6] = Ratio of unbound plasma concentration in mouse model of CFA-induced cold allodynia to Kd for binding affinity to mouse Nav1.7 by radioligand binding assay; type: ADME; settings: in vivo
[7] = Ratio of unbound plasma concentration in mouse model of SNI-induced pain to Kd for binding affinity to mouse Nav1.7 by radioligand binding assay; type: ADME; settings: in vivo
[8] = Ratio of unbound plasma concentration in mouse model of STZ-induced pain measured on day 1 to Kd for binding affinity to mouse Nav1.7 by radioligand binding assay; type: ADME; settings: in vivo
[9] = target: Sodium channel protein type 9 subunit alpha (Mus musculus, UniProt Q62205); test: Binding affinity to mouse Nav1.7 by radioligand binding assay
[10] = target: Sodium channel protein type 1 subunit alpha (Homo sapiens, UniProt P35498); test: Binding affinity to human recombinant Nav1.1 by radioligand binding assay
[11] = target: Sodium channel protein type 2 subunit alpha (Homo sapiens, UniProt Q99250); test: Binding affinity to human recombinant Nav1.2 by radioligand binding assay
[12] = target: Sodium channel protein type 3 subunit alpha (Homo sapiens, UniProt Q9NY46); test: Binding affinity to human recombinant Nav1.3 by radioligand binding assay
[13] = target: Sodium channel protein type 8 subunit alpha (Homo sapiens, UniProt Q9UQD0); test: Binding affinity to human recombinant Nav1.6 by radioligand binding assay
[14] = target: Sodium channel protein type 10 subunit alpha (Mus musculus, UniProt Q6QIY3); test: Binding affinity to mouse Nav1.8 […] by radioligand binding assay
Homo sapiens [15] = species on record: Homo sapiens; test: Selectivity ratio of Kd for binding affinity to human recombinant Nav1.1 by radioligand binding assay to Kd for binding affinity to human recombinant Nav1.7 by radioligand binding assay
Homo sapiens [16] = species on record: Homo sapiens; test: Selectivity ratio of Kd for binding affinity to human recombinant Nav1.2 by radioligand binding assay to Kd for binding affinity to human recombinant Nav1.7 by radioligand binding assay
Homo sapiens [17] = species on record: Homo sapiens; test: Selectivity ratio of Kd for binding affinity to human recombinant Nav1.3 by radioligand binding assay to Kd for binding affinity to human recombinant Nav1.7 by radioligand binding assay
Homo sapiens [18] = species on record: Homo sapiens; test: Selectivity ratio of Kd for binding affinity to human recombinant Nav1.4 by radioligand binding assay to Kd for binding affinity to human recombinant Nav1.7 by radioligand binding assay
Homo sapiens [19] = species on record: Homo sapiens; test: Selectivity ratio of Kd for binding affinity to human recombinant Nav1.5 by radioligand binding assay to Kd for binding affinity to human recombinant Nav1.7 by radioligand binding assay
Homo sapiens [20] = species on record: Homo sapiens; test: Selectivity ratio of Kd for binding affinity to human recombinant Nav1.6 by radioligand binding assay to Kd for binding affinity to human recombinant Nav1.7 by radioligand binding assay
[21] = Plasma concentration in mouse model of pain at 60 mg/kg, po during hot plate test; type: ADME, organism-based; settings: in vivo
[22] = Plasma concentration in mouse model of pain at 60 mg/kg, po during tail immersion test; type: ADME, organism-based; settings: in vivo
[23] = Plasma concentration in mouse model of pain at 60 mg/kg, po during Randall-Selitto test; type: ADME, organism-based; settings: in vivo
[24] = Plasma concentration in mouse model of CFA-induced pain at 60 mg/kg, po during Hargreaves test; type: ADME, organism-based; settings: in vivo
[25] = Plasma concentration in mouse model of capsaicin-induced pain at 60 mg/kg, po during von Frey test; type: ADME, organism-based; settings: in vivo
[26] = Ratio of plasma concentration in mouse model of pain at 60 mg/kg, po during hot plate test to IC50 for inhibition of mouse Nav1.7 expressed in HEK293 cells by electrophysiology assay; type: organism-based; settings: in vivo
[27] = Ratio of plasma concentration in mouse model of pain at 60 mg/kg, po during tail immersion test to IC50 for inhibition of mouse Nav1.7 expressed in HEK293 cells by electrophysiology assay; type: organism-based; settings: in vivo
[28] = Ratio of plasma concentration in mouse model of pain at 60 mg/kg, po during Randall-Selitto test to IC50 for inhibition of mouse Nav1.7 expressed in HEK293 cells by electrophysiology assay; type: organism-based; settings: in vivo
[29] = Ratio of plasma concentration in mouse model of CFA-induced pain at 60 mg/kg, po during Hargreaves test to IC50 for inhibition of mouse Nav1.7 expressed in HEK293 cells by electrophysiology assay; type: organism-based; settings: in vivo
[30] = Ratio of plasma concentration in mouse model of capsaicin-induced pain at 60 mg/kg, po during von Frey test to IC50 for inhibition of mouse Nav1.7 expressed in HEK293 cells by electrophysiology assay; type: organism-based; settings: in vivo
[31] = Ratio of unbound plasma concentration in mouse model of STZ-induced pain measured to Kd for binding affinity to mouse Nav1.7 by radioligand binding assay; type: ADME; settings: in vivo
[32] = Plasma concentration in mouse model of pain at 30 mg/kg, po during hot plate test; type: ADME, organism-based; settings: in vivo
[33] = Plasma concentration in mouse model of pain at 30 mg/kg, po during tail immersion test; type: ADME, organism-based; settings: in vivo
[34] = Plasma concentration in mouse model of CFA-induced pain at 30 mg/kg, po during Hargreaves test; type: ADME, organism-based; settings: in vivo
[35] = Ratio of plasma concentration in mouse model of pain at 30 mg/kg, po during hot plate test to IC50 for inhibition of mouse Nav1.7 expressed in HEK293 cells by electrophysiology assay; type: organism-based; settings: in vivo
[36] = Ratio of plasma concentration in mouse model of pain at 30 mg/kg, po during tail immersion test to IC50 for inhibition of mouse Nav1.7 expressed in HEK293 cells by electrophysiology assay; type: organism-based; settings: in vivo
[37] = Ratio of plasma concentration in mouse model of CFA-induced pain at 30 mg/kg, po during Hargreaves test to IC50 for inhibition of mouse Nav1.7 expressed in HEK293 cells by electrophysiology assay; type: organism-based; settings: in vivo

Chain of Sodium channel protein type 5 subunit alpha (Q14524 whole entry): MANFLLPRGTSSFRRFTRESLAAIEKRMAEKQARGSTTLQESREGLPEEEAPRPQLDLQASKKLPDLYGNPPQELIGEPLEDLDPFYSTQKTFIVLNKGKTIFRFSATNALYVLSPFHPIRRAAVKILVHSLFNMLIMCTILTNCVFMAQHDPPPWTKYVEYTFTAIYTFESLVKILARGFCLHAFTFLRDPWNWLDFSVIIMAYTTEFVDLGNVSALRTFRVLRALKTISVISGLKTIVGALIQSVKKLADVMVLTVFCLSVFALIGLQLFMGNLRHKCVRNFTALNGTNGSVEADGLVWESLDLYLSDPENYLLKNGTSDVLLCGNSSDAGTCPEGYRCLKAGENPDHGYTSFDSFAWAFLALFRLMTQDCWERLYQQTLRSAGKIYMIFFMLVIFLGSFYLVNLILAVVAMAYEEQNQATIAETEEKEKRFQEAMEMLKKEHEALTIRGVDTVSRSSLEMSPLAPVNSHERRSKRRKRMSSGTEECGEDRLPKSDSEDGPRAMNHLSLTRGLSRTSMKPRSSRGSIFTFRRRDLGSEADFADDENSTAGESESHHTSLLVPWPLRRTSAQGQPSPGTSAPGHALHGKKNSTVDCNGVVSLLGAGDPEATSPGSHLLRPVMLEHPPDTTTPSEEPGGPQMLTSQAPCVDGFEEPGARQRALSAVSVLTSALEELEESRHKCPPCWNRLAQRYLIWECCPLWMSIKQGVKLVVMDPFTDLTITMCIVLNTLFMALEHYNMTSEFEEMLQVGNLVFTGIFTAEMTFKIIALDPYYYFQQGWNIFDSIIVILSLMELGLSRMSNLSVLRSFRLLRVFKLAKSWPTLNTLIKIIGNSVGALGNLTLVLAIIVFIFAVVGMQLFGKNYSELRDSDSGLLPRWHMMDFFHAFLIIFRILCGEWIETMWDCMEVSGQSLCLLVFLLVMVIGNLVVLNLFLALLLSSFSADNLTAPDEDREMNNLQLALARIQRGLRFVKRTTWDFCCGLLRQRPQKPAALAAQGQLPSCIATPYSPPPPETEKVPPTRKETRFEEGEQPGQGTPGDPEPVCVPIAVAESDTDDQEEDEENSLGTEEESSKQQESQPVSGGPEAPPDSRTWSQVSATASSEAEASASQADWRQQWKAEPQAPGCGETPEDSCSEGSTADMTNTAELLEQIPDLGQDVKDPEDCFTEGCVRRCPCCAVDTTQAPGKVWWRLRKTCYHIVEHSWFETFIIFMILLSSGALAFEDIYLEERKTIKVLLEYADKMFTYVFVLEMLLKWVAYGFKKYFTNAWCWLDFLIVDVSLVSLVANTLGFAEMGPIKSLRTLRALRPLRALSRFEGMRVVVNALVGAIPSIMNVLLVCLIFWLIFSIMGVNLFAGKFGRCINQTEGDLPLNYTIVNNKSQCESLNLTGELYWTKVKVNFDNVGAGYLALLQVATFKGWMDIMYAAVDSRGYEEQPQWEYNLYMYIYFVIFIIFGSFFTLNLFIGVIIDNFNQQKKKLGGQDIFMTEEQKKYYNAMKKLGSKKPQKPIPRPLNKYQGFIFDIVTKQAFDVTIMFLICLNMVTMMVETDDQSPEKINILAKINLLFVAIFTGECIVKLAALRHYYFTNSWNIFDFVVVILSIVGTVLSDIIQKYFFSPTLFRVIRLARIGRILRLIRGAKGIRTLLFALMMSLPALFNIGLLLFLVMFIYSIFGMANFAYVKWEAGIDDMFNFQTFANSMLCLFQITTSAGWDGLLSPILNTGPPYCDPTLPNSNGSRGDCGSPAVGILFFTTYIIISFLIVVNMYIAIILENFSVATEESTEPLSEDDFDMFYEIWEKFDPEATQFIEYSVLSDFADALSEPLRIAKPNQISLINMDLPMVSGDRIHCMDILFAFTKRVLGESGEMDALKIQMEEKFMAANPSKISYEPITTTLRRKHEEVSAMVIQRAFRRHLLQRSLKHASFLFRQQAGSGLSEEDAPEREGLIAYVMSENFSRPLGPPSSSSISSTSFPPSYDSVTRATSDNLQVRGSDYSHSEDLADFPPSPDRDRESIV
Chain of Sodium channel protein type 3 subunit alpha (Q9NY46 whole entry): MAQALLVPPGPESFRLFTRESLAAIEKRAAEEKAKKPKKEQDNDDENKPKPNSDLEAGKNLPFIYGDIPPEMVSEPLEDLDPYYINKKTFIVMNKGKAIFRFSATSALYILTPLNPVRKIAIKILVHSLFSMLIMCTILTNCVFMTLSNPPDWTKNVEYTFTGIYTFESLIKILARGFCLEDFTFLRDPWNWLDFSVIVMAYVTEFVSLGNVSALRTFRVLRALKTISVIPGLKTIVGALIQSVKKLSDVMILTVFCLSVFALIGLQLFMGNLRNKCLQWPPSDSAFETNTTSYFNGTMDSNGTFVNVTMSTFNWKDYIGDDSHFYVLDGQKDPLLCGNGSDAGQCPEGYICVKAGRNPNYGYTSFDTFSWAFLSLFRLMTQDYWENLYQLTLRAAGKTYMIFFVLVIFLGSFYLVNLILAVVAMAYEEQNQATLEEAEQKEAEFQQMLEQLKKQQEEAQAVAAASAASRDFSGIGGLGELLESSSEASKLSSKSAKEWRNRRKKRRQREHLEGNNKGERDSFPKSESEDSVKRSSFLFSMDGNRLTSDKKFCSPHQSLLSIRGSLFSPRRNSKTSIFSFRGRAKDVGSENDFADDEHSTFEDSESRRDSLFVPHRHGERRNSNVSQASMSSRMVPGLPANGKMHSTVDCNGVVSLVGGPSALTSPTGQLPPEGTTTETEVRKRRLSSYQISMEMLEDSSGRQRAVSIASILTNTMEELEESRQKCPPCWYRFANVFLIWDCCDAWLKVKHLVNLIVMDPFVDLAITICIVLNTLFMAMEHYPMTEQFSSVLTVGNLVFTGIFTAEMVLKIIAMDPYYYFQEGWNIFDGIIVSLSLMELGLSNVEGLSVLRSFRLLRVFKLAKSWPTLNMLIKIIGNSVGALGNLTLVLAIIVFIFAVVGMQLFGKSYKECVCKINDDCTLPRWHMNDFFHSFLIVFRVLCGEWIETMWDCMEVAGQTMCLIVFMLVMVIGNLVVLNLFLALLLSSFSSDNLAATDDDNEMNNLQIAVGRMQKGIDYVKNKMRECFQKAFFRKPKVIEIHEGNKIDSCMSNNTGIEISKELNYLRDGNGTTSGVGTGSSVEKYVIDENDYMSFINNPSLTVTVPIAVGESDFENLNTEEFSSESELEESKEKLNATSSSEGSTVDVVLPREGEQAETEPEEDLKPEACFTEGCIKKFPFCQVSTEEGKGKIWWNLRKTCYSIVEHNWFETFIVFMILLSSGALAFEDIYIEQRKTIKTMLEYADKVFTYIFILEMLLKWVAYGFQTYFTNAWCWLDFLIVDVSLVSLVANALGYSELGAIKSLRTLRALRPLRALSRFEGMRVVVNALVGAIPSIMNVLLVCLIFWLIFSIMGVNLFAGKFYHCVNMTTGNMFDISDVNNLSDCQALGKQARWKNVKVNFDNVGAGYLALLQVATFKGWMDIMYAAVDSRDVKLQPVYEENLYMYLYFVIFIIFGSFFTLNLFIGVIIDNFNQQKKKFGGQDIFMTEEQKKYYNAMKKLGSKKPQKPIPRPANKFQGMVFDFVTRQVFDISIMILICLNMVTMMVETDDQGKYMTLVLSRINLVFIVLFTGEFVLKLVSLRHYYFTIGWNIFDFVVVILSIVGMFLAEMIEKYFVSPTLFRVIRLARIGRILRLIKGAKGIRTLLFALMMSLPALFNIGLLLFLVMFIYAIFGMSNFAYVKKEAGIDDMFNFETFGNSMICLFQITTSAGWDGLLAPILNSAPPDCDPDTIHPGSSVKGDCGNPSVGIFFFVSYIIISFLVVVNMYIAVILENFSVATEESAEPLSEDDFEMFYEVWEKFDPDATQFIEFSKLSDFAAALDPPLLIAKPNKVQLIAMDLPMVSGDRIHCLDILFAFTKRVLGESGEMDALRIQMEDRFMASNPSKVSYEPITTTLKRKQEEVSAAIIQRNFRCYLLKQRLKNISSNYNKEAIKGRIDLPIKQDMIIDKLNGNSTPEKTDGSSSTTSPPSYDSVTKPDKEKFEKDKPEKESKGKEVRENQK

Compound	pKd [1]	pKd [2]	fraction unbound [3]	Ratio [4]	Ratio [5]	Ratio [6]	pKd [9]	pKd [10]	pKd [11]	pKd [12]	pKd [13]	pKd [14]	Ratio Ki (Homo sapiens [15])	Ratio Ki (Homo sapiens [16])	Ratio Ki (Homo sapiens [17])	Ratio Ki (Homo sapiens [18])	Ratio Ki (Homo sapiens [19])	Ratio Ki (Homo sapiens [20])	further results
Cc1nn([C@@H]2CCN([C@H](C)c3cc(Cl)cc(Cl)c3)C2)c2cc(F)c(C(=O)NS(=O)(=O)C3CC3)cc12	7.33	6.34	0.007	2.3	3.3	6.2	7.85	6.85	6.85	6.96	6.21	4.66	6.4	6.4	5	2.1	21	28	Ratio [7]: 5.7; Ratio [8]: 5; concentration [21]: 49.3 µM; concentration [22]: 49.3 µM; concentration [23]: 49.3 µM; concentration [24]: 67.9 µM; concentration [25]: 31.1 µM; Ratio [26]: 25; Ratio [27]: 25; Ratio [28]: 25; Ratio [29]: 34; Ratio [30]: 16
CS(=O)(=O)NC(=O)c1cc(C2CC2)c(OCC2CCN(Cc3cc(C(F)(F)F)ccc3Cl)CC2)cc1F	7.55	6.43	0.002	0.6	5.5	7.5	8.68	6.85	7.19	6.74	6.68	4.89	40	18	51	8	100	60	Ratio [31]: 12; concentration [32]: 10.5 µM; concentration [33]: 10.5 µM; concentration [34]: 16.1 µM; Ratio [35]: 10; Ratio [36]: 10; Ratio [37]: 15
